Test results from patent US12486231B2, “Targeted nitroxide compounds and their use in treating ferroptosis-related diseases” (University of Pittsburgh—Of the Commonwealth System of …, priority 2019, dated 2025).
Read-outs that look alike come from different tables or passages of the source.

Columns and labels:
[1] = test system: HT-1080 cells; test: Protection against Erastin-induced ferroptosis in HT-1080 cells (CellTiter-Glo); assay type: cell-based; conditions: for Erastin-induced ferroptosis in HT-1080 cells: % activity remaining at 1 μM / % Activity remaining (value at a concentration of 1 μM): compound 1 μM; for % Activity remaining (value at a concentration of 1 μM): relative to vehicle and Erastin samples
Procedure: Compounds 6c, 6e, 6f, and 6i, as described above, were tested at a concentration of 1 μM, yielding values of 6c (85%), 6e (80%), 6f (77%), 6g (16%), 6h (78%), 6i (57%), and 6j (83%). For comparison, JP4-039 yielded a value of 56%. […] Briefly, 200 μL of a 5,000 cell/mL solution of HT-1080 cells were incubated for 24 h at 37° C. at 5% CO2, 95% humidity. The compounds were dissolved in DMSO and diluted to desired testing concentration. Compounds (1 μL) were added to culture medium (1 mL) containing 10 μM Erastin and incubated at 37° C., 5% CO2, 95% humidity for 24 h. CellTiter-Glo® reagent was added and the plate was incubated for 20 min at rt, sealed, centrifuged (1 min) at 1,000 rpm, shaken (1 min), and read in Enspire. % Activity remaining was determined as a function of vehicle sample and Erastin sample.
B. Compounds 6a-6n were tested for their protection against Erastin-induced ferroptosis in HT-1080 cells. Briefly, 200 μL of a 5,000 cell/mL solution of HT-1080 cells were incubated for 24 h at 37° C. at 5% CO2, 95% humidity. The compounds were dissolved in DMSO and diluted to desired testing concentration. Compounds (1 μL) were added to culture medium (1 mL) containing 10 μM Erastin and incubated at 37° C., 5% CO2, 95% humidity for 24 h. CellTiter-Glo® reagent was added and the plate was incubated for 20 min at rt, sealed, centrifuged (1 min) at 1,000 rpm, shaken (1 min), and read in Enspire. % Activity remaining was determined as a function of vehicle sample and Erastin sample.

[2] = log P
[3] = 10 μM Erastin, 24 h, HT-1080 cells
[4] = 10 μM Erastin, 24 h, HT-1080 cells, read-out: EC50

Row | Molecule | logP [2] | Erastin-induced ferroptosis in HT-1080 cells: % activity remaining at 1 μM [1, 3] | % Activity remaining (value at a concentration of 1 μM) [1, 3] | log P [2] | also measured
1 | CC(C)(C)OC(=O)N[C@@H](/C=C/CC(=O)NC1CC(C)(C)N([O])C(C)(C)C1)c1ccccc1 [6b, tert-Butyl (S,E)-(5-((1-oxy-2,2,6,6-tetramethylpiperidin-4-yl)amino)-5-oxo-1-phenylpent-2-en-1-yl)carbamate] | 2.92 | – | – | – | EC50 ([1]; Homo sapiens, HT-1080, 24 h): 948 nM
2 | CC(C)C[C@@H](/C=C/CNC(=O)C1CC(C)(C)N([O])C(C)(C)C1)NC(=O)OC(C)(C)C [6i, tert-Butyl (S,E)-(1-(1-oxy-2,2,6,6-tetramethylpiperidine-4-carboxamido)-6-methylhept-2-en-4-yl)carbamate] | 3.15 | 57% | 57% | – | –
3 | CC(C)C[C@@H](/C=C/[C@H](Cc1ccccc1)C(=O)NC1CC(C)(C)N(O)C(C)(C)C1)NC(=O)OC(C)(C)C [6j, tert-Butyl ((4S,7S,E)-7-benzyl-8-((1-oxy-2,2,6,6-tetramethylpiperidin-4-yl)amino)-2-methyl-8-oxooct-5-en-4-yl)carbamate] | 4.93 | 83% | 83% | – | EC50 ([1]; Homo sapiens, 10 μM Erastin, 24 h, HT-1080 cells, read-out: EC50): 207 nM; EC50 ([1]; Homo sapiens, 10 μM Erastin, 24 h, HT-1080 cells, read-out: Erastin-induced ferroptosis in HT-1080 cells: EC50): 207 nM
4 | CC(C)C[C@@H](/C=C/[C@H](Cc1ccc(F)cc1)C(=O)NC1CC(C)(C)N(O)C(C)(C)C1)NC(=O)OC(C)(C)C [6k, tert-Butyl ((4S,7S,E)-7-(4-fluorobenzyl)-8-((1-oxy-2,2,6,6-tetramethylpiperidin-4-yl)amino)-2-methyl-8-oxooct-5-en-4-yl)carbamate] | 5.09 | – | – | – | –
5 | CC(C)CC(C=CCC(=O)NC1CC(C)(C)N([O])C(C)(C)C1)NC(=O)OC(C)(C)C [6l, tert-Butyl (S,Z)-(8-((1-oxy-2,2,6,6-tetramethylpiperidin-4-yl)amino)-2-methyl-8-oxooct-5-en-4-yl)carbamate] | – | – | – | 2.76 | –
6 | CC(C)C[C@@H](CCCC(=O)NC1CC(C)(C)N([O])C(C)(C)C1)NC(=O)OC(C)(C)C [6m, tert-Butyl (R)-(8-((1-oxy-2,2,6,6-tetramethylpiperidin-4-yl)amino)-2-methyl-8-oxooctan-4-yl)carbamate] | 2.94 | – | – | – | –
7 | CCCCCCCC(=O)NC1CC(C)(C)N([O])C(C)(C)C1 [6n, N-(1-Oxy-2,2,6,6-tetramethylpiperidin-4-yl)octanamide] | 2.83 | – | – | – | –
8 | tert-Butyl (S,E)-(1-(1-((1-oxy-2,2,6,6-tetramethylpiperidin-4-yl)carbamoyl)cyclopentyl)-5-methylhex-1-en-3-yl)carbamate [6f] | – | 77% | 77% | 4.37 | –
9 | tert-Butyl (S,E)-(1-(1-((1-oxy-2,2,6,6-tetramethylpiperidin-4-yl)carbamoyl)cyclopropyl)-5-methylhex-1-en-3-yl)carbamate [6e] | – | 80% | 80% | 3.53 | EC50 ([1]; 10 μM Erastin, 24 h, HT-1080 cells, read-out: Erastin-induced ferroptosis in HT-1080 cells: EC50): 958 nM
10 | tert-Butyl (S,E)-(1-(4-((1-oxy-2,2,6,6-tetramethylpiperidin-4-yl)carbamoyl)tetrahydro-2H-pyran-4-yl)-5-methylhex-1-en-3-yl)carbamate [6g] | – | 16% | 16% | 3.10 | –
11 | tert-Butyl (S,E)-(5-((1-oxy-2,2,6,6-tetramethylpiperidin-4-yl)amino)-4,4-dimethyl-5-oxo-1-phenylpent-2-en-1-yl)carbamate [6a] | – | – | – | 4.19 | –
12 | tert-Butyl (S,E)-(7,7-dibenzyl-8-((1-oxy-2,2,6,6-tetramethylpiperidin-4-yl)amino)-2-methyl-8-oxooct-5-en-4-yl)carbamate [6d] | – | 78% | – | 7.24 | EC50 [1, 4]: 173 nM
13 | tert-Butyl (S,E)-(7-(1-oxy-2,2,6,6-tetramethylpiperidine-4-carboxamido)-2,7-dimethyloct-5-en-4-yl)carbamate [6h] | – | 78% | 78% | 3.68 | EC50 [1, 4]: 576 nM
14 | tert-Butyl (S,E)-(8-((1-oxy-2,2,6,6-tetramethylpiperidin-4-yl)amino)-2,7,7-trimethyl-8-oxooct-5-en-4-yl)carbamate [6c] | – | 85% | 85% | 4.03 | –
